Measurements from patent US9944602B2, “Piperidinone herbicides” (E. I. DU PONT DE NEMOURS AND COMPANY, priority 2014, dated 2018).

Tests used:
Format in all cases: in vivo
Details in all cases: Table C, scale 0 to 100
[1] = tested on: barnyardgrass (Echinochloa crus-galli); assay: Test C postemergence barnyardgrass
From the text: (§1) Seeds of plant species selected from blackgrass (Alopecurus myosuroides), ryegrass, Italian (Italian ryegrass, Lolium multiflorum), wheat (winter wheat, Triticum aestivum), galium (catchweed bedstraw, Galium aparine), corn (Zea mays), crabgrass, large (large crabgrass, Digitaria sanguinalis), foxtail, giant (giant foxtail, Setaria faberii), johnsongrass (Sorghum halepense), lambsquarters (Chenopodium album), morningglory (Ipomoea coccinea), yellow (yellow nutsedge, Cyperus esculentus), pigweed (Amaranthus retroflexus), ragweed (common ragweed, Ambrosia elatior), soybean (Glycine max), barnyardgrass (Echinochloa crus-galli), oilseed rape (Brassica napus), waterhemp (common waterhemp, Amaranthus rudis), and velvetleaf (Abutilon theophrasti) were planted into a blend of loam soil and sand and treated preemergence with test chemicals formulated in a non-phytotoxic solvent mixture which included a surfactant. At the same time, plants selected from these crop and weed species and also chickweed (common chickweed, Stellaria media), kochia (Kochia scoparia), and oat, wild (wild oat, Avena fatua) were planted in pots containing Sunshine Redi-Earth® planting medium comprising spaghnum peat moss, vermiculite, starter nutrients and dolomitic limestone and treated with postemergence applications of test chemicals formulated in the same manner. Plants ranged in height from 2 to 18 cm (1- to 4-leaf stage) for postemergence treatments. Treated plants and controls were maintained in a greenhouse for 13 to 15 days, after which time all species were compared to controls and visually evaluated. Plant response ratings, summarized in Table C, are based on a scale of 0 to 100 where 0 is no effect and 100 is complete control. A dash (-) response means no test result.

[2] = tested on: oat, wild (wild oat, Avena fatua); assay: Test C postemergence oat, wild
From the text: as §1

[3] = tested on: pigweed (Amaranthus retroflexus); assay: Test C postemergence pigweed
From the text: as §1

[4] = tested on: lambsquarters (Chenopodium album); assay: Test C postemergence lambsquarters
From the text: as §1

[5] = tested on: yellow (yellow nutsedge, Cyperus esculentus); assay: Test C postemergence yellow nutsedge
From the text: as §1

soybean (Glycine max) = assay: Test C postemergence soybean
From the text: as §1

[6] = tested on: velvetleaf (Abutilon theophrasti); assay: Test C postemergence velvetleaf
From the text: as §1

[7] = tested on: oilseed rape (Brassica napus); assay: Test C postemergence oilseed rape
From the text: as §1

[8] = tested on: ragweed (common ragweed, Ambrosia elatior); assay: Test C postemergence ragweed
From the text: as §1

corn (Zea mays) = assay: Test C postemergence corn
From the text: as §1

[9] = tested on: pigweed (Amaranthus retroflexus); assay: Test C preemergence pigweed
From the text: as §1

[10] = tested on: johnsongrass (Sorghum halepense); assay: Test C preemergence johnsongrass
From the text: as §1

[11] = tested on: ragweed (common ragweed, Ambrosia elatior); assay: Test C preemergence ragweed
From the text: as §1

[12] = tested on: barnyardgrass (Echinochloa crus-galli); assay: Test C preemergence barnyardgrass
From the text: as §1

[13] = tested on: wheat (winter wheat, Triticum aestivum); assay: Test C preemergence wheat
From the text: as §1

[14] = tested on: morningglory (Ipomoea coccinea); assay: Test C preemergence morningglory
From the text: as §1

[15] = tested on: oilseed rape (Brassica napus); assay: Test C preemergence oilseed rape
From the text: as §1

[16] = tested on: blackgrass (Alopecurus myosuroides); assay: Test C preemergence blackgrass
From the text: as §1

[17] = tested on: lambsquarters (Chenopodium album); assay: Test C preemergence lambsquarters
From the text: as §1

[18] = tested on: velvetleaf (Abutilon theophrasti); assay: Test C preemergence velvetleaf
From the text: as §1

## O=C1NCCC(c2cccc(C(F)(F)F)c2)C1C(=O)Nc1ccccc1Cl (racemic) [Compound 17]
[1]; 31 g ai/ha
  Plant response rating: 0
[1]; 62 g ai/ha
  Plant response rating: 0
[1]; 125 g ai/ha
  Plant response rating: 5
[1]; 250 g ai/ha
  Plant response rating: 50
[2]; 31 g ai/ha
  Plant response rating: 0
[2]; 62 g ai/ha
  Plant response rating: 0
[2]; 125 g ai/ha
  Plant response rating: 0
[2]; 250 g ai/ha
  Plant response rating: 0
[3]; 31 g ai/ha
  Plant response rating: 0
[3]; 62 g ai/ha
  Plant response rating: 0
[3]; 125 g ai/ha
  Plant response rating: 0
[3]; 250 g ai/ha
  Plant response rating: 5
[4]; 62 g ai/ha
  Plant response rating: 75
[4]; 250 g ai/ha
  Plant response rating: 80
[5]; 31 g ai/ha
  Plant response rating: 0
[5]; 62 g ai/ha
  Plant response rating: 0
[5]; 125 g ai/ha
  Plant response rating: 0
[5]; 250 g ai/ha
  Plant response rating: 0
Soybean (Glycine max); 31 g ai/ha
  Plant response rating: 0
Soybean (Glycine max); 62 g ai/ha
  Plant response rating: 10
Soybean (Glycine max); 125 g ai/ha
  Plant response rating: 0
Soybean (Glycine max); 250 g ai/ha
  Plant response rating: 0
[6]; 31 g ai/ha
  Plant response rating: 0
[6]; 62 g ai/ha
  Plant response rating: 0
[6]; 125 g ai/ha
  Plant response rating: 0
[6]; 250 g ai/ha
  Plant response rating: 0
[7]; 31 g ai/ha
  Plant response rating: 0
[7]; 62 g ai/ha
  Plant response rating: 0
[7]; 125 g ai/ha
  Plant response rating: 0
[7]; 250 g ai/ha
  Plant response rating: 0
[8]; 31 g ai/ha
  Plant response rating: 0
[8]; 62 g ai/ha
  Plant response rating: 0
[8]; 125 g ai/ha
  Plant response rating: 0
[8]; 250 g ai/ha
  Plant response rating: 0
Corn (Zea mays); 31 g ai/ha
  Plant response rating: 0
Corn (Zea mays); 62 g ai/ha
  Plant response rating: 0
Corn (Zea mays); 125 g ai/ha
  Plant response rating: 0
Corn (Zea mays); 250 g ai/ha
  Plant response rating: 0

## O=C1NCCC(c2cccc(C(F)(F)F)c2)C1C(=O)Nc1ccc(F)c(F)c1F (racemic) [Compound 28]
[9]; 125 g ai/ha
  Plant response rating: 0
[10]; 31 g ai/ha
  Plant response rating: 0
[10]; 62 g ai/ha
  Plant response rating: 0
[10]; 125 g ai/ha
  Plant response rating: 0
[10]; 250 g ai/ha
  Plant response rating: 10
[11]; 31 g ai/ha
  Plant response rating: 0
[11]; 62 g ai/ha
  Plant response rating: 0
[11]; 125 g ai/ha
  Plant response rating: 0
[11]; 250 g ai/ha
  Plant response rating: 0
[12]; 31 g ai/ha
  Plant response rating: 60
[12]; 62 g ai/ha
  Plant response rating: 75
[12]; 125 g ai/ha
  Plant response rating: 90
[12]; 250 g ai/ha
  Plant response rating: 95
[13]; 31 g ai/ha
  Plant response rating: 0
[13]; 62 g ai/ha
  Plant response rating: 0
[13]; 125 g ai/ha
  Plant response rating: 0
[13]; 250 g ai/ha
  Plant response rating: 10
[14]; 31 g ai/ha
  Plant response rating: 5
[14]; 62 g ai/ha
  Plant response rating: 5
[14]; 125 g ai/ha
  Plant response rating: 5
[14]; 250 g ai/ha
  Plant response rating: 30
[15]; 31 g ai/ha
  Plant response rating: 0
[15]; 62 g ai/ha
  Plant response rating: 0
[15]; 125 g ai/ha
  Plant response rating: 0
[15]; 250 g ai/ha
  Plant response rating: 0
[16]; 31 g ai/ha
  Plant response rating: 35
[16]; 62 g ai/ha
  Plant response rating: 40
[16]; 125 g ai/ha
  Plant response rating: 70
[16]; 250 g ai/ha
  Plant response rating: 90
[17]; 31 g ai/ha
  Plant response rating: 5
[17]; 62 g ai/ha
  Plant response rating: 5
[17]; 125 g ai/ha
  Plant response rating: 5
[17]; 250 g ai/ha
  Plant response rating: 15
[18]; 31 g ai/ha
  Plant response rating: 10
[18]; 62 g ai/ha
  Plant response rating: 0
[18]; 125 g ai/ha
  Plant response rating: 20
[18]; 250 g ai/ha
  Plant response rating: 20

## O=C1NCCC(c2cccc(C(F)(F)F)c2)C1C(=O)Nc1cccc(F)c1F (centres unmarked) [Compound 9, N-(2,3-difluorophenyl)-2-oxo-4-[3-(trifluoromethyl)phenyl]-3-piperidinecarboxamide]
[1]; 31 g ai/ha
  Plant response rating: 0
[1]; 62 g ai/ha
  Plant response rating: 5
[1]; 125 g ai/ha
  Plant response rating: 60
[1]; 250 g ai/ha
  Plant response rating: 85
[9]; 31 g ai/ha
  Plant response rating: 5
[9]; 62 g ai/ha
  Plant response rating: 0
[9]; 125 g ai/ha
  Plant response rating: 0
[9]; 250 g ai/ha
  Plant response rating: 10
[10]; 31 g ai/ha
  Plant response rating: 0
[10]; 62 g ai/ha
  Plant response rating: 0
[10]; 125 g ai/ha
  Plant response rating: 35
[10]; 250 g ai/ha
  Plant response rating: 55
[11]; 31 g ai/ha
  Plant response rating: 0
[11]; 62 g ai/ha
  Plant response rating: 0
[11]; 125 g ai/ha
  Plant response rating: 10
[11]; 250 g ai/ha
  Plant response rating: 20
[12]; 31 g ai/ha
  Plant response rating: 75
[12]; 62 g ai/ha
  Plant response rating: 90
[12]; 125 g ai/ha
  Plant response rating: 95
[12]; 250 g ai/ha
  Plant response rating: 95
[2]; 31 g ai/ha
  Plant response rating: 0
[2]; 62 g ai/ha
  Plant response rating: 0
[2]; 125 g ai/ha
  Plant response rating: 0
[2]; 250 g ai/ha
  Plant response rating: 0
[13]; 31 g ai/ha
  Plant response rating: 0
[13]; 62 g ai/ha
  Plant response rating: 30
[13]; 125 g ai/ha
  Plant response rating: 55
[13]; 250 g ai/ha
  Plant response rating: 70
[3]; 31 g ai/ha
  Plant response rating: 0
[3]; 62 g ai/ha
  Plant response rating: 0
[3]; 125 g ai/ha
  Plant response rating: 5
[3]; 250 g ai/ha
  Plant response rating: 5
[14]; 31 g ai/ha
  Plant response rating: 0
[14]; 62 g ai/ha
  Plant response rating: 20
[14]; 125 g ai/ha
  Plant response rating: 5
[14]; 250 g ai/ha
  Plant response rating: 45
[15]; 31 g ai/ha
  Plant response rating: 0
[15]; 62 g ai/ha
  Plant response rating: 0
[15]; 125 g ai/ha
  Plant response rating: 0
[15]; 250 g ai/ha
  Plant response rating: 40
[4]; 31 g ai/ha
  Plant response rating: 0
[4]; 62 g ai/ha
  Plant response rating: 0
[4]; 125 g ai/ha
  Plant response rating: 5
[4]; 250 g ai/ha
  Plant response rating: 0
[5]; 31 g ai/ha
  Plant response rating: 0
[5]; 62 g ai/ha
  Plant response rating: 0
[5]; 125 g ai/ha
  Plant response rating: 0
[5]; 250 g ai/ha
  Plant response rating: 0
[16]; 31 g ai/ha
  Plant response rating: 50
[16]; 62 g ai/ha
  Plant response rating: 40
[16]; 125 g ai/ha
  Plant response rating: 80
[16]; 250 g ai/ha
  Plant response rating: 90
[17]; 31 g ai/ha
  Plant response rating: 0
[17]; 62 g ai/ha
  Plant response rating: 0
[17]; 125 g ai/ha
  Plant response rating: 0
[17]; 250 g ai/ha
  Plant response rating: 0
Soybean (Glycine max); 31 g ai/ha
  Plant response rating: 0
Soybean (Glycine max); 62 g ai/ha
  Plant response rating: 0
Soybean (Glycine max); 125 g ai/ha
  Plant response rating: 0
Soybean (Glycine max); 250 g ai/ha
  Plant response rating: 10
[6]; 31 g ai/ha
  Plant response rating: 0
[6]; 62 g ai/ha
  Plant response rating: 0
[6]; 125 g ai/ha
  Plant response rating: 0
[6]; 250 g ai/ha
  Plant response rating: 0
[7]; 31 g ai/ha
  Plant response rating: 0
[7]; 62 g ai/ha
  Plant response rating: 0
[7]; 125 g ai/ha
  Plant response rating: 0
[7]; 250 g ai/ha
  Plant response rating: 5
[8]; 31 g ai/ha
  Plant response rating: 0
[8]; 62 g ai/ha
  Plant response rating: 0
[8]; 125 g ai/ha
  Plant response rating: 0
[8]; 250 g ai/ha
  Plant response rating: 5
Corn (Zea mays); 31 g ai/ha
  Plant response rating: 0
Corn (Zea mays); 62 g ai/ha
  Plant response rating: 0
Corn (Zea mays); 125 g ai/ha
  Plant response rating: 0
Corn (Zea mays); 250 g ai/ha
  Plant response rating: 0
[18]; 31 g ai/ha
  Plant response rating: 0
[18]; 62 g ai/ha
  Plant response rating: 5
[18]; 125 g ai/ha
  Plant response rating: 0
[18]; 250 g ai/ha
  Plant response rating: 0
